In ChEMBL document CHEMBL4428049, “Design and synthesis of aminothiazole modulators of the gamma-secretase enzyme” (Bioorg Med Chem Lett, 2016):
Converted amounts (≈) assume the structure as drawn.

Key:
[1] = target: Gamma-secretase; assay: Modulation of gamma-secretase in human SH-SY5Y cells overexpressing wild-type human APP751 assessed as inhibition of Abeta42 level after 24 hrs by ELISA; format: cell-based
[2] = Kinetic solubility in PBS buffer at pH 7.4 by UV/vis absorbance analysis; format: physicochemical; conditions: read-out: Kinetic_solubility
[3] = Lipophilicity, log D of the compound; format: physicochemical; conditions: octanol/water
[4] = Stability in human liver microsomes assessed as compound remaining at 1 uM incubated for 30 mins; format: ADME, Microsome; conditions: read-out: Stability
[5] = Stability in rat liver microsomes assessed as compound remaining at 1 uM incubated for 30 mins; format: ADME, Microsome; conditions: read-out: Stability
[6] = Stability in mouse liver microsomes assessed as compound remaining at 1 uM incubated for 30 mins; format: ADME, Microsome; conditions: read-out: Stability
[7] = target: Cytochrome P450 3A4 (Homo sapiens, UniProt P08684); assay: Inhibition of recombinant CYP3A4 (unknown origin) by fluorescence-based assay; format: ADME
Sequence of Cytochrome P450 3A4 (P08684 whole entry): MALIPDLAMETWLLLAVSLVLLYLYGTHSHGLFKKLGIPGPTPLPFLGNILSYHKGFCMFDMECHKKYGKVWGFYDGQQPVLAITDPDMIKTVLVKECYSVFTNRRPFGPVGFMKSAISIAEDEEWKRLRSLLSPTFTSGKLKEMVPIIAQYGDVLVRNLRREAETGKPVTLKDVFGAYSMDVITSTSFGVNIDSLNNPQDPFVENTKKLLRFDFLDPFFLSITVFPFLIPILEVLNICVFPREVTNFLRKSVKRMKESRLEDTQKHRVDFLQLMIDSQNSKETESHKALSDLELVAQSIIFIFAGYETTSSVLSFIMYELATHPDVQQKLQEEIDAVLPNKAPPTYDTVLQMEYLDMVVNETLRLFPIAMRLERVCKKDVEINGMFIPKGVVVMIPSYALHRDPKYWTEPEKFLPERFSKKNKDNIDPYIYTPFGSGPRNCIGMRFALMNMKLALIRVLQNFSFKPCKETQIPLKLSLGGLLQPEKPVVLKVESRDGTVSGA

[8] = target: T1, Cytochrome P450 1A2 (Homo sapiens, UniProt P05177); assay: Inhibition of recombinant CYP1A2 (unknown origin) by fluorescence-based assay; format: ADME
T1 sequence (P05177 whole entry): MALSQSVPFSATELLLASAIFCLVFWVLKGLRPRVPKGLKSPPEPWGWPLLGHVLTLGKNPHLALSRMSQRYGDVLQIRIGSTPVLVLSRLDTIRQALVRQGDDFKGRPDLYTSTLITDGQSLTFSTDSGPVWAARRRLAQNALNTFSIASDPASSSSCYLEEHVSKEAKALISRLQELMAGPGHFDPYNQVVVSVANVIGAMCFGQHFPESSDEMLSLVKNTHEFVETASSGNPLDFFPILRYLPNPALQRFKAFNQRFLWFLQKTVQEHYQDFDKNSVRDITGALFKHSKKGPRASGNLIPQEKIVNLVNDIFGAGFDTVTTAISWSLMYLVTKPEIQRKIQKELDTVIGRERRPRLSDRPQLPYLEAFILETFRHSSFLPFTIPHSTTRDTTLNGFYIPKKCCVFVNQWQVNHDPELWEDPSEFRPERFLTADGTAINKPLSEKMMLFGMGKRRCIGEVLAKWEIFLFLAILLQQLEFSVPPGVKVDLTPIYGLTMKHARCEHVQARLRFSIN

[9] = target: Cytochrome P450 2C9 (Homo sapiens, UniProt P11712); assay: Inhibition of recombinant CYP2C9 (unknown origin) by fluorescence-based assay; format: ADME
Sequence of Cytochrome P450 2C9 (P11712 whole entry): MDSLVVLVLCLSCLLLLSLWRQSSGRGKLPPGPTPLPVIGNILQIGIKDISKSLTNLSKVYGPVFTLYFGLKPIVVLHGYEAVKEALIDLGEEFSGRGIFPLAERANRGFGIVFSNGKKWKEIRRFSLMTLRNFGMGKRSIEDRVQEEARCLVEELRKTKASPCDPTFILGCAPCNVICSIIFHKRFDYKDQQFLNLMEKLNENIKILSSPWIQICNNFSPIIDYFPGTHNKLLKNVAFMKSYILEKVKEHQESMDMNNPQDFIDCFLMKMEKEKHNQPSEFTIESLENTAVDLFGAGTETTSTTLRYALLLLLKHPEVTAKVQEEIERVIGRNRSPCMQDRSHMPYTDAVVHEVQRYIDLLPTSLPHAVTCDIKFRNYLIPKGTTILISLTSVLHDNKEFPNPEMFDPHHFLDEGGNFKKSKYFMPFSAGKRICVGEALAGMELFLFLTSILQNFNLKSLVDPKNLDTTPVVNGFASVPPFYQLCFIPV

[10] = target: Cytochrome P450 2C19 (Homo sapiens, UniProt P33261); assay: Inhibition of recombinant CYP2C19 (unknown origin) by fluorescence-based assay; format: ADME
Sequence of Cytochrome P450 2C19 (P33261 whole entry): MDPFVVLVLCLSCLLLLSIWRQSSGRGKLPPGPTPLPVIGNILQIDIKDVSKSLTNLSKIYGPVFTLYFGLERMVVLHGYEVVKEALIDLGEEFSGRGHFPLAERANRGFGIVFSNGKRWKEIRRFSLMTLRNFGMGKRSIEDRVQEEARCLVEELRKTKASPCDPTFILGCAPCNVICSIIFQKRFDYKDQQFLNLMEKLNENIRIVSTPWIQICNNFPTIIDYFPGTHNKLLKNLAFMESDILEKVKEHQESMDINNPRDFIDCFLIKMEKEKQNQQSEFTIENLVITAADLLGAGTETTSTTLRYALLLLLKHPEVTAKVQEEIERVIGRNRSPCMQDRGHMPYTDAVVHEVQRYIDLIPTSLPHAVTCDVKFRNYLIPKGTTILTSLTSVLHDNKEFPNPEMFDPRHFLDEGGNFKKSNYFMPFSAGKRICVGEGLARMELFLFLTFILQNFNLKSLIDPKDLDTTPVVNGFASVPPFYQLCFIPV

[11] = target: Cytochrome P450 2D6 (Homo sapiens, UniProt P10635); assay: Inhibition of recombinant CYP2D6 (unknown origin) by fluorescence-based assay; format: ADME
Sequence of Cytochrome P450 2D6 (P10635 whole entry): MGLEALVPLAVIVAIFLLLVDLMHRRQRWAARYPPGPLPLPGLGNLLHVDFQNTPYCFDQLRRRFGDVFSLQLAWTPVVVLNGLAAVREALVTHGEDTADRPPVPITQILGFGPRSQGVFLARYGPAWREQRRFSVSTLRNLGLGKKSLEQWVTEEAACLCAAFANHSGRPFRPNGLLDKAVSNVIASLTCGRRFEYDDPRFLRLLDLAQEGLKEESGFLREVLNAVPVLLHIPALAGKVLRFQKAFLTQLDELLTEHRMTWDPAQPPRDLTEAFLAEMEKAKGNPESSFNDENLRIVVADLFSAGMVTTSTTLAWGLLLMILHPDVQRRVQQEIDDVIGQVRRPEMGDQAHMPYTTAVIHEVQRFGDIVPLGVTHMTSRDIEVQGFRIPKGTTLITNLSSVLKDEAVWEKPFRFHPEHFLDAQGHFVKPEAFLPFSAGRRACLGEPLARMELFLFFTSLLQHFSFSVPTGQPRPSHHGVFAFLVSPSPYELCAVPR

[12] = target: Voltage-gated inwardly rectifying potassium channel KCNH2 (Homo sapiens, UniProt Q12809); assay: Inhibition of human ERG channel expressed in HEK293 cells by patch-clamp assay; format: cell-based
Sequence of Voltage-gated inwardly rectifying potassium channel KCNH2 (Q12809 whole entry): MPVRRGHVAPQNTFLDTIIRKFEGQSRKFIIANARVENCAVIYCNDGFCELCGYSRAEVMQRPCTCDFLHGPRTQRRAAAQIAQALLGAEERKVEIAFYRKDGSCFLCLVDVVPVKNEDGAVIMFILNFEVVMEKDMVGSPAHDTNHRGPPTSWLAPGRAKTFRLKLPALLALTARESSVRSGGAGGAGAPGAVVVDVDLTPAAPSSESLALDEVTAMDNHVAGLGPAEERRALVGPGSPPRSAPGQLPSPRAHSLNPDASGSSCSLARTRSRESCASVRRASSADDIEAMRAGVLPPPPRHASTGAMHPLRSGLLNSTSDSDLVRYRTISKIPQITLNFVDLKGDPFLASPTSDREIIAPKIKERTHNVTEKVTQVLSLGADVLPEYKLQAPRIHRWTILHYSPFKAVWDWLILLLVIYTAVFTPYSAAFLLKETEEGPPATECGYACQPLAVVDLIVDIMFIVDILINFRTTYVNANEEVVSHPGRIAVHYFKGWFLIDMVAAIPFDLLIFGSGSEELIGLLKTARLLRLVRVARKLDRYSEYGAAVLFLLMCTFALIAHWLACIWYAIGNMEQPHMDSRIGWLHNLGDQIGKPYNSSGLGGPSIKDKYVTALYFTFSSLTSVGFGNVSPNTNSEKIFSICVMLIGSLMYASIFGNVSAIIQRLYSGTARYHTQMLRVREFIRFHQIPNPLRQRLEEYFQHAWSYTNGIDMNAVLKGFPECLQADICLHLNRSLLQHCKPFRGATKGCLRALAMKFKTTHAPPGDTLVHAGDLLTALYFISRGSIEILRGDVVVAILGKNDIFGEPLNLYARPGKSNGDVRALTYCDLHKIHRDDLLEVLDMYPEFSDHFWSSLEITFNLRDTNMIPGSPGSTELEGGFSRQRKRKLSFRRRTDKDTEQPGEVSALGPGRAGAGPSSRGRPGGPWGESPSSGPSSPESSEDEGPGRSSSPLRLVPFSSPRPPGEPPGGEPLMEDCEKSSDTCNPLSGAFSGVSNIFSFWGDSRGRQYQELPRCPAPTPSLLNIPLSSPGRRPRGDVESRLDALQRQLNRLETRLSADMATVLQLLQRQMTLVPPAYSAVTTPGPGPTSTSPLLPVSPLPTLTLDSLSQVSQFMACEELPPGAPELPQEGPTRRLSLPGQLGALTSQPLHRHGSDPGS

[13] = Apparent permeability in MDCK cells expressing MDR1; format: ADME, cell-based, Canis lupus familiaris; conditions: dog
[14] = Efflux ratio of permeability from basolateral to apical over apical to basolateral side of MDCK cells expressing MDR1; format: ADME, cell-based, Canis lupus familiaris; conditions: dog
[15] = Protein binding in plasma (unknown origin); format: ADME, cell-free; conditions: read-out: PPB (converted)
[16] = Cmax in CD1 mouse at 1 mg/kg, iv administered as single dose by HPLC/MS/MS analysis; format: ADME, organism-based; parameters: dose 1 mg/kg, route intravenous; conditions: in vivo
[17] = Tmax in CD1 mouse at 1 mg/kg, iv administered as single dose by HPLC/MS/MS analysis; format: ADME, organism-based; conditions: in vivo
[18] = Half life in CD1 mouse at 1 mg/kg, iv administered as single dose by HPLC/MS/MS analysis; format: ADME, organism-based; conditions: in vivo
[19] = AUC (last) in CD1 mouse at 1 mg/kg, iv administered as single dose by HPLC/MS/MS analysis; format: ADME, organism-based; parameters: dose 1 mg/kg, time 0 - last, route intravenous; conditions: in vivo
[20] = AUC (infinity) in CD1 mouse at 1 mg/kg, iv administered as single dose by HPLC/MS/MS analysis; format: ADME, organism-based; parameters: dose 1 mg/kg, route intravenous, time infinity; conditions: in vivo
[21] = Clearance in CD1 mouse at 1 mg/kg, iv administered as single dose by HPLC/MS/MS analysis; format: ADME, organism-based; conditions: in vivo
[22] = Volume of distribution at steady state in CD1 mouse at 1 mg/kg, iv administered as single dose by HPLC/MS/MS analysis; format: ADME, organism-based; conditions: in vivo, read-out: Vdss
[23] = Ratio of drug level in brain to plasma in CD1 mouse at 1 mg/kg, iv administered as single dose measured after 1 hr by HPLC/MS/MS analysis; format: ADME, organism-based; conditions: read-out: BPR
[24] = Cmax in CD1 mouse at 5 mg/kg administered via oral gavage by HPLC/MS/MS analysis; format: ADME, organism-based; parameters: dose 5 mg/kg, route oral; conditions: in vivo
[25] = Tmax in CD1 mouse at 5 mg/kg administered via oral gavage by HPLC/MS/MS analysis; format: ADME, organism-based; conditions: in vivo
[26] = Half life in CD1 mouse at 5 mg/kg administered via oral gavage by HPLC/MS/MS analysis; format: ADME, organism-based; conditions: in vivo
[27] = AUC (last) in CD1 mouse at 5 mg/kg administered via oral gavage by HPLC/MS/MS analysis; format: ADME, organism-based; parameters: dose 5 mg/kg, time 0 - last, route oral; conditions: in vivo
[28] = AUC (infinity) in CD1 mouse at 5 mg/kg administered via oral gavage by HPLC/MS/MS analysis; format: ADME, organism-based; parameters: dose 5 mg/kg, time infinity, route oral; conditions: in vivo
[29] = Ratio of drug level in brain to plasma in CD1 mouse at 5 mg/kg administered via oral gavage by HPLC/MS/MS analysis; format: ADME, organism-based; conditions: read-out: BPR
[30] = Ratio of drug level in brain to plasma in CD1 mouse at 5 mg/kg administered via oral gavage measured after 4 hrs by HPLC/MS/MS analysis; format: ADME, organism-based; conditions: read-out: BPR
[31] = Ratio of drug level in brain to plasma in CD1 mouse at 5 mg/kg administered via oral gavage measured after 8 hrs by HPLC/MS/MS analysis; format: ADME, organism-based; conditions: read-out: BPR
[32] = Clearance in CD1 mouse at 1 mg/kg administered intravenously by HPLC/MS/MS analysis relative to hepatic blood flow; conditions: in vivo, iv

## Cc1cn(-c2ccc(-c3csc(Nc4cc(C(F)(F)F)nn4C(C)(C)C)n3)cc2F)cn1
[1]
  IC50: 121 nM

## Cc1cn(-c2ccc(-c3csc(Nc4c5c(nn4CC(F)(F)F)CCC5)n3)cc2F)cn1
[2]
  solubility kinetic: < 1.6 µM
[1]
  IC50: 94 nM

## CCn1nc(C(F)(F)F)cc1Nc1nc(-c2ccc(-n3cnc(C)c3)c(F)c2)cs1
[2]
  solubility kinetic: < 1.6 µM
[1]
  IC50: 110 nM

## Cc1cn(-c2ccc(-c3csc(Nc4c5c(nn4C(C)C)CCC5)n3)cc2F)cn1
[2]
  solubility kinetic: < 1.6 µM
[1]
  IC50: 66 nM

## COCCn1nc2c(c1Nc1nc(-c3ccc(-n4cnc(C)c4)c(F)c3)cs1)CCCC2
[2]
  solubility kinetic: 2.3 µM (≈ 1.04 µg/mL)
[1]
  IC50: 272 nM

## CCn1nc2c(c1Nc1nc(-c3ccc(-n4cnc(C)c4)c(F)c3)cs1)CCC2
[2]
  solubility kinetic: < 1.6 µM
[1]
  IC50: 41 nM

## Cc1cn(-c2ccc(-c3csc(Nc4c5c(nn4C(C)(C)C)CCC5)n3)cc2F)cn1
[1]
  IC50: 175 nM

## Cc1cn(-c2ccc(-c3csc(Nc4c5c(nn4C4CCCC4)CCCC5)n3)cc2F)cn1
[1]
  IC50: 225 nM

## Cc1cn(-c2ccc(-c3csc(Nc4c5c(nn4C4CCN(C)CC4)CCCC5)n3)cc2F)cn1
[2]
  solubility kinetic: 2.8 µM (≈ 1.38 µg/mL)
[1]
  IC50: > 1000 nM

## CCn1nccc1Nc1nc(-c2ccc(-n3cnc(C)c3)c(F)c2)cs1
[1]
  IC50: > 1000 nM

## CCn1nc2c(c1Nc1nc(-c3ccc(-n4cnc(C)c4)c(F)c3)cs1)CCCC2
[1]
  IC50: 163 nM

## CCn1nc(C(C)(C)C)cc1Nc1nc(-c2ccc(-n3cnc(C)c3)c(F)c2)cs1
[2]
  solubility kinetic: 4.7 µM (≈ 2 µg/mL)
[1]
  IC50: 63 nM
[3]
  logD: 3.64
[4]
  remaining at 0.5 h, 1 µM: 51%
[5]
  remaining at 0.5 h, 1 µM: 64%
[6]
  remaining at 0.5 h, 1 µM: 95%
[7]
  IC50: 16000 nM
[8]
  IC50: > 100000 nM
[9]
  IC50: > 100000 nM
[10]
  IC50: 82000 nM
[11]
  IC50: > 100000 nM
[12]
  IC50: > 30000 nM
[13]
  Papp: 0.97 ×10⁻⁶ cm/s
[14]
  efflux ratio: 1.6
[15]
  fraction unbound: 0.006
[16]
  Cmax: 161 ng/mL
[17]
  Tmax: 4.98 min
[18]
  half-life: 2.4 h
[19]
  AUC(0-t): 335 ng·h/mL
[20]
  AUC(0-inf): 498 ng·h/mL
[21]
  clearance: 33.5 mL/min/kg
[22]
  Vd: 7.15 L/kg
[23]
  Kp at 1 h: 0.64
[24]
  Cmax: 1000 ng/mL
[25]
  Tmax: 1 h
[26]
  half-life: 6 h
[27]
  AUC(0-t): 5390 ng·h/mL
[28]
  AUC(0-inf): 5720 ng·h/mL
[29]
  Kp: 0.5
[30]
  Kp at 4 h: 0.53
[31]
  Kp at 8 h: 0.59
[32]
  CL: 40%

## CCn1nc2c(c1Nc1nc(-c3ccc(-n4cnc(C)c4)c(F)c3)cs1)CCCCC2
[1]
  IC50: 114 nM

## Cc1cn(-c2ccc(-c3csc(Nc4c5c(nn4C)CCC5)n3)cc2F)cn1
[1]
  IC50: > 1000 nM

## Cc1cn(-c2ccc(-c3csc(Nc4cc(C(C)(C)C)nn4C(C)(C)C)n3)cc2F)cn1
[2]
  solubility kinetic: 2 µM (≈ 0.905 µg/mL)
[1]
  IC50: 85 nM

## Cc1cn(-c2ccc(-c3csc(Nc4c5c(nn4CCN4CCOCC4)CCCC5)n3)cc2F)cn1
[1]
  IC50: > 1000 nM

## Cc1cn(-c2ccc(-c3csc(Nc4c5c(nn4CCCN4CCOCC4)CCCC5)n3)cc2F)cn1
[2]
  solubility kinetic: 16 µM (≈ 8.35 µg/mL)
[1]
  IC50: 270 nM

## Cc1cn(-c2ccc(-c3csc(Nc4cc(C(C)(C)C)nn4C)n3)cc2F)cn1
[1]
  IC50: 294 nM

## Cc1cn(-c2ccc(-c3csc(Nc4c5c(nn4C(C)(C)C)CCCC5)n3)cc2F)cn1
[1]
  IC50: 216 nM

## Cc1cn(-c2ccc(-c3csc(Nc4c5c(nn4C4CCOCC4)CCCC5)n3)cc2F)cn1
[1]
  IC50: 766 nM

## Cc1cn(-c2ccc(-c3csc(Nc4c5c(nn4CC(F)(F)F)CCCC5)n3)cc2F)cn1
[1]
  IC50: 179 nM

## Cc1cn(-c2ccc(-c3csc(Nc4c5c(nn4C4CCCCC4)CCCC5)n3)cc2F)cn1
[1]
  IC50: 280 nM

## Cc1cn(-c2ccc(-c3csc(Nc4c5c(nn4C(C)C)CCCC5)n3)cc2F)cn1
[1]
  IC50: 195 nM
